Key:
[1] = system: senescent A549 cells, IMR90 cells, RPE cells, mouse chondrocytes, mouse skin fibroblasts; assay: Cell viability of senescent cells (CellTiter-Glo); type: cell-based, human; conditions: 1 μM, 72 hours; etoposide (10 μM)-induced senescent cells; FIGS. 2A to 2E
Method: (§1) In this example, human non-small cell lung cancer cell line (A549 cells), human embryonic lung fibroblast cell line (IMR90 cells), human retinal pigment epithelial cells (RPE cells), mouse chondrocytes, and mouse skin fibroblasts were selected. The cells above were induced to obtain senescent cells by etoposide (10 μM). The effect of the target compounds RZ001-RZ006 and RZ201 on the viability of normal and senescent cells above was detected, thereby evaluating the specific killing effect of the prodrugs RZ001-RZ006 and RZ201 on senescent cells above.
(§2) Briefly, senescent and normal cells above were selected and plated separately (96-well plates). After adding the compounds RZ001-RZ006 and RZ201 (concentration: 1 μM) for 72 hours, CellTiter-Glo® Luminescent Cell Viability Assay Kit (Promega) was used to detect cell viability, and the results were shown in FIGS. 2A to 2E.

[2] = system: normal A549 cells, IMR90 cells, RPE cells, mouse chondrocytes, mouse skin fibroblasts; assay: Cell viability of normal cells (CellTiter-Glo); type: cell-based, human; conditions: 1 μM, 72 hours, FIGS. 2A to 2E
Method: as §1, §2

[3] = system: normal and senescent A549 cells; assay: Senescent cell clearance index (senolytic index); type: cell-based, human; conditions: higher index = greater specificity
Method: as §1, §2
Furthermore, the senescent cell clearance index (senolytic index) was also calculated for both normal and senescent A549 cells, as shown in Table 4. A higher index indicates greater specificity in eliminating senescent cells and better safety.

aging skin = assay: Aging skin in naturally aging mouse model; type: in vivo; conditions: skin application twice a week, 6 consecutive weeks; aged female mice (22 months old); FIG. 10
Method: In this example, aged female C57bl/6J mice (22 months old) were used. The drug was administered by skin application at twice a week for 6 consecutive weeks.

Alzheimer's disease = assay: APP×PS1 transgenic mouse model of Alzheimer's disease; type: in vivo; conditions: intraperitoneal injection, twice a week, 11 consecutive weeks; cerebral cortex; FIG. 8
Method: In this example, the efficacy of the compounds of the present disclosure was tested on Alzheimer's disease in an animal model of Alzheimer's disease. Briefly, a transgenic mouse model of APP×PS1 (purchased from Cyagen Biosciences) was selected and the compound of the present disclosure was administered by intraperitoneal injection for 11 consecutive weeks, twice a week. Alterations in amyloid in the cerebral cortex of the mice were observed.

[4] = system: idiopathic pulmonary fibrosis; assay: Bleomycin idiopathic pulmonary fibrosis animal model; type: in vivo, SD rats; conditions: intraperitoneal (IP) 5 mg/kg, 3 consecutive weeks from day 7; Day 28; FIG. 6
Method: In this example, the efficacy of the compounds of the present disclosure was tested on idiopathic pulmonary fibrosis in an idiopathic pulmonary fibrosis animal model. Briefly, anesthetized 6-week-old SD rats were fixed on a foam board with medical tape. Firstly, the skin on the surface of the trachea was cut with surgical scissors to fully expose the trachea, and a 100-microlitre micro-syringe containing a certain volume of bleomycin (BLM 5 mg/kg) solution drawn based on the body weight of the rat was inserted into the trachea through the oral cavity to administer by slow bolus injection. After administration of the BLM solution, the foam plate was immediately rotated and shaken to distribute the BLM solution as evenly as possible in the lung tissue. Then the skin on the surface of the trachea was sutured with surgical sutures and about 0.5 to 1.0 mL of penicillin solution was dripped onto the epidermis to prevent infection of the surgical wound. After the 7th day of modelling, the compound solution of the present disclosure was administered via intraperitoneal (IP) injection (5 mg/kg) according to the weight of the rat for 3 consecutive weeks. Rats were euthanized by carbon dioxide at Day 28, the lung tissues were removed, the left alveolar lavage fluid was collected for white blood cell (WBC) counting, the right lung tissue portion was used for hydroxyproline (HYP) assay, and the remaining lung tissues were stained for pathology by H&E staining and Masson staining.

osteoarthritis = assay: Osteoarthritis animal model; type: in vivo, mice; conditions: intra-articular injection; FIG. 7
Method: In this example, the efficacy of the compounds of the present disclosure was tested on osteoarthritis in an osteoarthritis animal model.
The osteoarthritis animal model was constructed by the following steps. The mice were anesthetized with isoflurane, and fixed. The hair on the right hind limb of the mice was shaved and the skin was disinfected with alcohol, and the skin of the joints was cut. Under an optical microscope, the inside of the right knee joint was incised longitudinally with a blade, without cutting the patellar ligament. The patellar ligament was pulled to one side with constant hemostasis by compression with sterile cotton swabs such that the joint cavity was fully exposed. Saline was added dropwise in time to avoid the drying up of the joint cavity. The excess muscle tissue was gently separated with a blunt forceps to expose the meniscus ligament. The anterior cruciate ligament was found in the depth of the joint cavity and cut with micro scissor. Then the wound was disinfected with penicillin solution, the muscle was sutured with sterile needle and thread, and the skin tissue was finally sutured. The efficacy of the drug was determined by intra-articular injection administration. At the endpoint of the test, continued pain threshold of the plantar was detected, and the bone joints were stained with safranin fast green.

[5] = system: wet-age-related macular degeneration (CNV); assay: CNV animal model of wet age-related macular degeneration; type: in vivo, mice; conditions: intravitreal (IVT); laser CNV model; FIG. 5
Method: In this example, the efficacy of the compounds of the present disclosure was tested on wet-age-related macular degeneration in a CNV animal model.
Male mice were administered 0.5% probacaine hydrochloride (Alcon) for local anesthesia, and 1% tropicamide to dilate the pupils of the mice. Laser cauterization was performed using a laser photocoagulator (Novus Varia, LUMENIS) with a slit lamp delivery system. And artificially torn adherent glass coverslips were used as contact lenses. Bleeding spots caused by laser were not included in the statistical data.

hepatic fibrosis = assay: CCl4 mouse model of hepatic fibrosis; type: in vivo, mice; conditions: intraperitoneal (IP) injection twice a week from third week of modelling; FIG. 9
Method: In this example, the efficacy of the compounds of the present disclosure was tested on hepatic fibrosis in an animal model of hepatic fibrosis. Briefly, C57BL/6N mice, male, 7 to 8 weeks old, 24 to 28 g of body weight, were used. The mouse model of hepatic fibrosis was induced by intraperitoneal injection of CCl4 solution at a dosage of 1 mL/kg, with a dosing frequency of 2 times/week, and a modelling cycle of 6 weeks. Dosing via intraperitoneal injection was started from the third week of modelling twice a week. At the end of the test, serum was collected, and liver tissue was taken for Masson staining index assay.

diabetic retinopathy = assay: Mouse model of diabetic retinopathy (STZ), Evans blue penetration; type: in vivo; conditions: intravitreal (IVT), 1 μL of 200 μM at 8 and 9 weeks after STZ; Evans blue at 10 weeks; FIG. 4
Method: The efficacy of the compounds of the present disclosure was studied in a mouse model of diabetic retinopathy by multiple administrations of streptozotocin (STZ). C57BL/6J mice at 6 to 7 weeks were weighed and their baseline blood glucose was measured (Sino). STZ (Sigma-Aldrich) was injected intraperitoneally into the mice at 55 mg/Kg for five consecutive days. Age-matched controls were injected with buffer only. Blood glucose was measured again one week after the last STZ injection. 1 μL of the test compound (200 μM, a suspension formulated in 0.015% polysorbate 80, 0.2% sodium phosphate, 0.75% sodium chloride, pH 7.2) was injected intravitreally into the STZ-treated diabetic C57BL/6J mice at 8 and 9 weeks after STZ administration. 10 weeks after STZ treatment, the retinal Evans blue penetration assay was performed.

renal fibrosis = assay: Renal fibrosis animal model (ureter ligation); type: in vivo, mice; conditions: intraperitoneal (IP) injection from 2nd week of modelling; FIG. 11
Method: In this example, the efficacy of the compound of the present disclosure was tested on renal fibrosis in an animal model of renal fibrosis. Briefly, C57BL/6J mice, male, 7 to 8 weeks old, were used. The mice were anaesthetized, made to lie supine on a foam board, and disinfected with iodophor, and a longitudinal incision was made in the skin in the middle of the lower abdomen to locate the white line of the abdominal muscle, where the abdominal muscle, fascia and peritoneal layer were dissected. After exposing the surgical field, the kidneys were exposed by pushing the stomach and mesentery of the mice to the right side with a gauze soaked with saline. The model of renal fibrosis was constructed by locating the transparent ureter from the renal pelvis along the renal artery, separating the left ureter, ligating the upper ⅓ of the left ureter, suturing the incision layer by layer, and finally disinfecting with iodophor. Dosing via intraperitoneal injection was started from the 2nd week of modelling. At the end of the experiment, the mouse serum was collected and kidney tissues were taken for Masson staining index assay.

Cc1c(-c2ccc(N3CCc4cccc(C(=O)Nc5nc6ccccc6s5)c4C3)nc2C(=O)O)cnn1CC12CC3CC(CC(C3)C1)C2 [Compound A-1331852, reference compound]
cytotoxicity against senescent cells (cell viability) [1]: killing senescent cells
cytotoxicity against normal cells (cell viability) [2]: significant cytotoxicity against normal cells
senescent cell clearance index (Senolytic Index) [3]: D (D represents 30 to 50)

Cc1c(-c2ccc(N3CCc4cccc(C(=O)Nc5nc6ccccc6s5)c4C3)nc2C(=O)OCOC(=O)OC(C)C)cnn1CC12CC3CC(CC(C3)C1)C2 [RZ002]
epidermal thickness scores of the skin (aging skin): statistically significant improvements
Aβ42 pathogenic protein indicators (Alzheimer's disease): statistically significant improvements
HYP (hydroxyproline, lung tissue) [4]: statistically significant improvements
WBC (white blood cell count, alveolar lavage fluid) [4]: statistically significant improvements
pathology scores (H&E and Masson staining, lung) [4]: statistically significant improvements
pathology scores of safranin fast green staining (osteoarthritis): statistically significant improvements
plantar mechanical pain threshold (osteoarthritis): statistically significant improvements
fluorescence intensity indicators [5]: statistically significant improvements
senescent cell clearance index (Senolytic Index) [3]: B (B represents 100 to 200)
pathology scores (liver, Masson staining) (hepatic fibrosis): statistically significant improvements
serum alanine aminotransferase (ALT) levels (hepatic fibrosis): statistically significant improvements
serum aspartate aminotransferase (AST) levels (hepatic fibrosis): statistically significant improvements
vascular permeability in both the retinal and choroidal vascular leakage (diabetic retinopathy): improved vascular permeability
pathology (kidney, Masson staining) (renal fibrosis): statistically significant improvements
serum creatinine (Cr) levels (renal fibrosis): statistically significant improvements
serum urea nitrogen (BUN) levels (renal fibrosis): statistically significant improvements

Cc1c(-c2ccc(N3CCc4cccc(C(=O)Nc5nc6ccccc6s5)c4C3)nc2C(=O)OCOC(=O)C(C)(C)C)cnn1CC12CC3CC(CC(C3)C1)C2 [RZ003]
senescent cell clearance index (Senolytic Index) [3]: B (B represents 100 to 200)

CCCC(=O)OCOC(=O)c1nc(N2CCc3cccc(C(=O)Nc4nc5ccccc5s4)c3C2)ccc1-c1cnn(CC23CC4CC(CC(C4)C2)C3)c1C [RZ004]
senescent cell clearance index (Senolytic Index) [3]: B (B represents 100 to 200)

CC(=O)OCOC(=O)c1nc(N2CCc3cccc(C(=O)Nc4nc5ccccc5s4)c3C2)ccc1-c1cnn(CC23CC4CC(CC(C4)C2)C3)c1C [RZ005]
senescent cell clearance index (Senolytic Index) [3]: B (B represents 100 to 200)

CCOC(=O)OCOC(=O)c1nc(N2CCc3cccc(C(=O)Nc4nc5ccccc5s4)c3C2)ccc1-c1cnn(CC23CC4CC(CC(C4)C2)C3)c1C [RZ006]
senescent cell clearance index (Senolytic Index) [3]: B (B represents 100 to 200)

CCC(=O)OC(OC(=O)c1nc(N2CCc3cccc(C(=O)Nc4nc5ccccc5s4)c3C2)ccc1-c1cnn(CC23CC4CC(CC(C4)C2)C3)c1C)C(C)C (stereo not drawn) [RZ007]
senescent cell clearance index (Senolytic Index) [3]: B (B represents 100 to 200)

CCCCOC(=O)c1nc(N2CCc3cccc(C(=O)Nc4nc5ccccc5s4)c3C2)ccc1-c1cnn(CC23CC4CC(CC(C4)C2)C3)c1C [RZ008]
senescent cell clearance index (Senolytic Index) [3]: F (F represents less than 10)

Cc1c(-c2ccc(N3CCc4cccc(C(=O)Nc5nc6ccccc6s5)c4C3)nc2C(=O)OC(C)OC(=O)C(C)C)cnn1CC12CC3CC(CC(C3)C1)C2 (stereo not drawn) [RZ009]
senescent cell clearance index (Senolytic Index) [3]: B (B represents 100 to 200)

Cc1c(-c2ccc(N3CCc4cccc(C(=O)Nc5nc6ccccc6s5)c4C3)nc2C(=O)OC(C)OC(=O)OC(C)C)cnn1CC12CC3CC(CC(C3)C1)C2 (stereo not drawn) [RZ010]
senescent cell clearance index (Senolytic Index) [3]: C (C represents 50 to 100)

Cc1c(-c2ccc(N3CCc4cccc(C(=O)Nc5nc6ccccc6s5)c4C3)nc2C(=O)OCCN2CCOCC2)cnn1CC12CC3CC(CC(C3)C1)C2 [RZ011]
senescent cell clearance index (Senolytic Index) [3]: F (F represents less than 10)

CCOC(=O)c1nc(N2CCc3cccc(C(=O)Nc4nc5ccccc5s4)c3C2)ccc1-c1cnn(CC23CC4CC(CC(C4)C2)C3)c1C [RZ202]
senescent cell clearance index (Senolytic Index) [3]: F (F represents less than 10)

Cc1c(-c2ccc(N3CCc4cccc(C(=O)Nc5nc6ccccc6s5)c4C3)nc2C(=O)OCOC(=O)[C@@H](N)C(C)C)cnn1CC12CC3CC(CC(C3)C1)C2 [RZ301]
senescent cell clearance index (Senolytic Index) [3]: B (B represents 100 to 200)

Reference: patent US20250376466A1, “ESTER COMPOUNDS AND USE THEREOF” (NANJING REJU THERAPEUTICS, CO., LTD., priority 2022, published 2025)
